Entries after “also recorded” stand apart in the source; their conditions may differ. d = 2'-deoxy (DNA); r = 2'-OH (RNA)
What was measured:
H1299 p53-/- cells = test: Flow cytometric analysis of apoptosis (sub-G1) and cell cycle in H1299 cells inducibly expressing 72R or 72P wild-type p53; format: cell-based, Human; conditions: for apoptosis (sub-G1 fraction), 72R versus 72P expressing cells: induced H1299, 5-FU 50 μg/ml, cisplatin, taxol, etoposide, doxorubicin; for apoptosis (sub-G1 fraction), 72R versus 72P expressing cells / difference in apoptosis between 72R and 72P: camptothecin 5 μM, 24 hours; for difference in apoptosis between 72R and 72P: H1299 clones, doxorubicin 1 μg/ml; for apoptosis and cell cycle effect on induction of 72P p53: H1299 induced to express 72P wild-type p53; for apoptosis and cell cycle effect on induction of 72P p53 / apoptosis and cell cycle effect on induction of 72R p53: cisplatin 1 μg/ml, taxol 500 ng/ml, flow cytometry after 24 hours; for apoptosis and cell cycle effect on induction of 72R p53: H1299 induced to express 72R wild-type p53
From the text: 72R and 72P wild-type p53 plasmids were constructed by subcloning the inserts from pArgSP53 and pProSP53 (See Matlashewski, et al., Mol. Cell. Biol., 7:961-963 (1987), incorporated by reference) into commercially available pTRE, resulting in pTRE 72R p53 and pTRE 72P p53 plasmids. Human H1299 p53−/− cells, which were maintained in DMEM+10% fetal bovine serum, were transfected with the pTRE 72R p53 and pTRE 72P p53 plasmids in accordance with standard procedures, resulting in H1299 cells lines which inducibly express 72R or 72P p53 protein. These cell lines were grown in DMEM 10% FCS supplemented with 0.5 mg/ml G418 and 0.5 μg/ml puromycin. Expression of 72R or 72P wild-type p53 was induced in H1299 cells by doxycycline or non-induced. […] Control cells were not exposed to drugs. Flow cytometric analysis was then performed after 24 hours as described in Bergamaschi et al., Cancer Cell, 3:387-402 (2003), incorporated by reference. A minimum of six independent 72R-inducible and 72P-inducible clones were analyzed, to obviate the effect of clonal variation.
Further tests examined the cellular responses to the anticancer agents camptothecin and 5-fluorouracil (FU). H1299 cells were induced to express equal levels of 72R or 72P wild-type p53, as described supra, or not induced. […] The cells were then exposed to camptothecin (5 μM) or 5-FU (50 μg/ml). Flow cytometric analysis was performed after 24 hours.
Three experiments were conducted, each analyzing two independent clones of 72R-expressing H1299 cells and two independent clones of 72P-expressing H1299 cells. […] Control cells were not exposed to drugs, and control cells for camptothecin and 5-FU received the drug vehicle only. After 24 hours, apoptosis was determined by flow cytometry as previously described.

H1299 cells = test: Colony-survival assays of H1299 cells expressing p53 variants; format: cell-based, Human
Procedure: The cytotoxicity of anticancer agents was determined in colony-survival assays of H1299 cells using standard protocols, following Bergamaschi, et al., supra, and as per the earlier examples. Briefly, H1299 cells were treated with doxycycline to induce p53 and plated at multiple densities. […] After drug exposure, cells were re-plated in drug free medium and grown until the appearance of visible colonies. Each drug exposure was done in triplicate in at least three experiments.
Further tests were performed to see if 46S influences cellular sensitivity to anticancer drugs in 72R-expressing cells.

Saos-2 cells [1] = test: Apoptosis (sub-G1) in Saos-2 cells expressing dominant-negative p73 inhibitors; format: cell-based; conditions: for sensitivity to apoptosis of Saos-2 cells expressing p73Δ2 and p73DD: dominant-negative p73 inhibitors; for sensitivity to apoptosis of Saos-2 lines expressing p73DD (L371P): inactive point mutation
Procedure: The Saos-2 cells were maintained, as described, supra, and cell lines stably expressing the dominant negative inhibitors were generated by transfection, and then cultivation in the presence of 400 μg/ml of G418. Isolated colonies were ring cloned, and then the expression of transfected sequences was confirmed.
The cells, when in exponential growth phase, received 10 μg of a plasmid encoding p73, and 3 μg of pcDNA3CD20. Twenty-four hours after transfection, cells were harvested, stained with propidiumiodide, and apoptosis was determined as percentage of sub-G1 cells.
In brief, this was determined by seeding 10^2-10^6 cells, in quadruplicate, onto 9 cm tissue culture dishes, and were treated, 24 hours later, for 2 hours, with cytotoxic drugs at various concentrations. Following drug exposure, the cells were grown until visible colonies appeared. They were then fixed in methanol, and stained with Giemsa. Survival was calculated relative to the cells receiving the drug vehicle alone.

p53 [2] = test: siRNA and drug effect on p53 levels in squamous carcinoma cell lines (Western blotting); format: cell-based; conditions: head and neck squamous cells; siRNA 100 nM; doxorubicin 1 μg/ml, taxol 500 ng/ml, cisplatin 10 μg/ml; 24 hours
Procedure: After 24 hours, cell lysates were prepared and analyzed via Western blotting.

p53 [3] = test: Western Blot analysis of p53 expression in transfected H1299 cells; format: cell-based, Human; conditions: cisplatin 1 μg/ml, 24 hours; each of the four variants 46A/46S 72R/72P
Procedure: H1299 cells were cotransfected with pcDNA3 CD20 and plasmids expressing 46A 72R, 46A 72P, 46S 72R, or 46S 72P wild-type p53 or with an empty vector (no p53, as a control), as described supra. […] After 24 hours, the cells were analyzed by flow cytometry. Western Blot analysis of p53 expression was also performed.

p73 = test: Western blotting of endogenous p73 steady state levels following drug treatment; format: cell-based; conditions: 24 hours; for levels of p73 in HN30: head and neck squamous cell line HN30
Procedure: The squamous carcinoma cell lines (“SCC”) tested included cells of the head and neck, cervix, vulva, and immortalized skin […]. […] The cells were exposed to the drugs for 24 hours, after which they were harvested in a lysis buffer (50 mM Tris, 250 mM NaCl, 0.1% Nonidet NP-40, 5 mM EDTA, 1 mM PMSF, with a protease inhibitor cocktail). […] The immunoprecipitates were then resolved, on 10% polyacrylamide gels, and immunoblotted with the antibody, and a secondary anti-mouse light chain antibody conjugated to horseradish peroxidase, which was then visualized using standard methods.

Hacat cells = test: Drug-induced apoptosis after p53 siRNA; format: cell-based; conditions: 100 nM siRNA, drugs 48 hours later
p53-p73 complexes = p53-p73 complexes and p73 in Hacat cells after siRNA and drug treatment; format: cell-based; conditions: 100 nM siRNA
Procedure: As a follow up to the work, supra, experiments were carried out to determine if the siRNA influenced association of the mutant p53 molecules with p73. […] Cell lysates were prepared after 24 hours, and p53-p73 complexes were analyzed, as described supra.

p53 [4] = test: siRNA effect on steady state levels of p53 mutant in cells expressing 72P 173L or 72R 173L; format: cell-based; conditions: siRNA 10-100 μM as printed
Procedure: To investigate this small inhibitory RNA (“siRNA”) oligonucleotides were used. The sequences:
The siRNA oligos were transfected into cells, in amounts ranging from 10-100 μM, using commercially available reagents. The siRNA was introduced into cells expressing either the 72P 173L mutant or the 72R173L mutant. Both were shown, supra, to inhibit p73.

Saos-2 cells [5] = format: cell-based
Procedure: The Saos-2 cells which had been engineered to stably express 72R and 72P mutants were then tested, in assays designed to determine whether p53 siRNA impacted drug resistance. Saos-2 cells which expressed 72R173Lp53 were treated with 100 nM of siRNA for p53, or with the same amount of PGL siRNA. […] Survival was assessed via colony forming ability.

Compound | apoptosis (sub-G1 fraction), 72R versus 72P expressing cells (H1299 p53-/- cells) | difference in apoptosis between 72R and 72P (H1299 p53-/- cells) | sensitivity of cells expressing 46A 72P p53 versus 46S 72P p53 (H1299 cells) | apoptosis and cell cycle effect on induction of 72P p53 (H1299 p53-/- cells) | apoptosis and cell cycle effect on induction of 72R p53 (H1299 p53-/- cells) | sensitivity to apoptosis of Saos-2 cells expressing p73Δ2 and p73DD (Saos-2 cells [1]) | sensitivity to apoptosis of Saos-2 lines expressing p73DD (L371P) (Saos-2 cells [1]) | p53 levels (p53 [2]) | levels of p73 in HN30 (p73) | other results
O=c1[nH]cc(F)c(=O)[nH]1 [5-FU, 5-fluorouracil] | apoptosis was always higher in cells expressing the 72R p53 variant | – | – | – | – | – | – | – | – | –
CC[C@@]1(O)C(=O)OCc2c1cc1n(c2=O)Cc2cc3ccccc3nc2-1 [camptothecin] | apoptosis was always higher in cells expressing the 72R p53 variant | twofold | – | – | – | – | – | – | – | –
N.N.[Cl][Pt][Cl] [cisplatin] | – | – | similar | minimal apoptosis but predominantly G1 arrest | increased sub-G1 fraction and a smaller G1 peak | less sensitive to apoptosis | sensitivity similar to control Saos-2 cells | unaffected | increased the levels of p73 | levels of p53 protein after treatment (p53 [3]): increased
COc1cccc2c1C(=O)c1c(O)c3c(c(O)c1C2=O)C[C@@](O)(C(=O)CO)C[C@@H]3O[C@H]1C[C@H](N)[C@H](O)[C@H](C)O1 [doxorubicin] | – | eightfold | similar | – | – | less sensitive to apoptosis | sensitivity similar to control Saos-2 cells | unaffected | increased the levels of p73 | cytotoxic effect in cells expressing 46A 72R p53 relative to 46S 72R p53 (H1299 cells): diminished; p73 level, all cell lines (p73; 1 μg/ml doxorubicin, squamous carcinoma cell lines and Saos-2): increased p73 in all cell lines
CC(=O)O[C@H]1C(=O)[C@@]2(C)[C@H]([C@H](OC(=O)c3ccccc3)[C@]3(O)C[C@H](OC(=O)[C@H](O)[C@@H](NC(=O)c4ccccc4)c4ccccc4)C(C)=C1C3(C)C)[C@]1(OC(C)=O)CO[C@@H]1C[C@@H]2O [taxol] | – | – | – | minimal apoptosis but predominantly G1 arrest | increased sub-G1 fraction and a smaller G1 peak | less sensitive to apoptosis | sensitivity similar to control Saos-2 cells | unaffected | increased the levels of p73 | –
p53 siRNA: small inhibitory RNA oligonucleotides, SEQ ID NO: 1 CUACUUCCUGAAAACAACG(d)TT and SEQ ID NO: 2 CGUUGUUUUCAGGAAGUAGd(TT) (chain 1 CUACUUCCUGAAAACAACGTT; chain 2 CGUUGUUUUCAGGAAGUAGTT; sugars from the 5' end r19 d2, backbone not given here) | – | – | – | – | – | – | – | reduced steady state levels of p53; also recorded: downregulated | – | apoptosis after siRNA followed by anticancer drugs, compared to controls (Hacat cells): clear increase in apoptosis; amount of p53 which associated with p73 (p53-p73 complexes): clear decrease; increase in p73 production associated with drug exposure (p53-p73 complexes): not affected; steady state levels of p53 polymorphic variants of the mutant (p53 [4]): dose dependent reduction; effect of siRNA on drug sensitivity, 143L mutant (Saos-2 cells [5]; Saos-2): similarly small effect; sensitivity to cisplatin and doxyrubicin of cell lines expressing 175H, 179Y, 179R, 245S, 248W, 249S, 273C and 282W (Saos-2 cells [5]; both polymorphic forms): increased sensitivity

Reference: patent US20050227918A1, “Method for assaying susceptibility to cancer therapy in a subject by assaying for tumors of P53” (priority 2004, published 2005)
